In the assay the test system is Endogenous Huntingtin Protein. The experiment in a line: Endogenous Huntingtin Protein Assay (ELISA-based MSD electrochemiluminescence). It counts as cell-based. To be noted: Table 1. Put shortly: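 Huntingtin was captured overnight at 4 °C on plates coated with 1 μg/mL MW1 (polyQ-expanded) or MAB2166 antibody and BSA-blocked. Detection used a rabbit monoclonal and then a SULFO-TAG goat anti-rabbit antibody (0.25 μg/mL, 1 h each, room temperature). Signal was read by electrochemiluminescence.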

Each structure is given as a SMILES string. Where only a bound is given, the exact number is not on record here.

Here are results for two compounds from patent publication US12139499B2, “Heteroaryl compounds for treating Huntington's disease” (PTC THERAPEUTICS, INC., priority 2018, dated 2024).

`Cc1cn2cc(-c3cc(F)c4nc(C5CCNCC5)sc4c3)nc2c(C)n1` [Compound 229, 2-[4-fluoro-2-(piperidin-4-yl)-1,3-benzothiazol-6-yl]-6,8-dimethylimidazo[1,2-a]pyrazine] showed an IC50 of no more than 0.1 µM.
In the case of `Cc1cc(-c2ccc3nc(C4=CCNCC4)sc3c2)cc2cn(C)nc12` [Compound 18, 6-(2,7-dimethyl-2H-indazol-5-yl)-2-(1,2,3,6-tetrahydropyridin-4-yl)-1,3-benzothiazole] it was 0.1 to 0.5 µM.
